From ChEMBL document CHEMBL1124518, “Nonsteroidal cardiotonics. 2. The inotropic activity of linear, tricyclic 5-6-5 fused heterocycles” (1989)

Key:
Rattus norvegicus [1] = species on record: Rattus norvegicus; test: Effective dose required to produce an increase in dP/dt5 by 1500 mmHg/s in rats; assay type: functional
Felis catus [2] = species on record: Felis catus; test: Effective dose required to produce an increase in dP/dt5 by 1500 mmHg/s in cats; assay type: functional
Canis familiaris [3] = test: Time after which maximum increase in contractility was observed when administered orally in conscious dogs at 1 mg/kg; assay type: functional, Canis lupus familiaris; details: route oral
Felis catus [4] = test: Maximum increase in dP/dt when administered intravenously in cats at 3 mg/kg.; assay type: functional; details: route intravenous
Rattus norvegicus [5] = test: Maximum increase in dP/dt when administered intravenously in rats at 10 mg/kg dose.; assay type: functional; design: unit not given here; details: route intravenous
Canis familiaris [6] = species on record: Canis familiaris; test: Effective dose required to produce an increase in dP/dt5 by 1500 mmHg/s in dogs; assay type: functional, Canis lupus familiaris
Canis familiaris [7] = test: Amount of time during which increase in administered orally in conscious dogs at 1 mg/kg; assay type: functional, Canis lupus familiaris; details: route oral
Canis familiaris [8] = test: Maximum increase in dP/dt when administered intravenously in dogs at 1 mg/kg dose.; assay type: functional, Canis lupus familiaris; details: route intravenous
Rattus norvegicus [9] = test: Maximum increase in dP/dt when administered intravenously in rats at 3 mg/kg dose.; assay type: functional; details: route intravenous
Rattus norvegicus [10] = test: Maximum increase in dP/dt when administered intravenously in rats at 0.1 mg/kg dose.; assay type: functional; details: route intravenous
Felis catus [11] = test: Maximum increase in dP/dt when administered intravenously in cats at 0.1 mg/kg dose.; assay type: functional; details: route intravenous
Canis familiaris [12] = test: Amount of time during which increase in administered orally in conscious dogs at 0.5 mg/kg; assay type: functional, Canis lupus familiaris; details: route oral
Felis catus [13] = test: Maximum increase in dP/dt when administered intravenously in cats at 3 mg/kg dose.; assay type: functional; details: route intravenous
Canis familiaris [14] = test: Maximum increase in dP/dt60 when administered orally in dogs at dose 0.5 mg/kg; assay type: functional, Canis lupus familiaris; details: route oral
Canis familiaris [15] = test: Time after which maximum increase in contractility was observed when administered orally in conscious dogs at 0.5 mg/kg; assay type: functional, Canis lupus familiaris; details: route oral
Rattus norvegicus [16] = test: Maximum increase in dP/dt when administered intravenously in rats at 1 mg/kg dose.; assay type: functional; design: unit not given here; details: route intravenous
Canis familiaris [17] = test: Maximum increase in dP/dt when administered intravenously in dogs at 0.3 mg/kg dose.; assay type: functional, Canis lupus familiaris; details: route intravenous
Canis familiaris [18] = test: Maximum increase in dP/dt when administered intravenously in dogs at 1 mg/kg.; assay type: functional, Canis lupus familiaris; details: route intravenous
Rattus norvegicus [19] = test: Maximum increase in dP/dt when administered intravenously in rats at […] dose.; assay type: functional
Felis catus [20] = test: Maximum increase in dP/dt when administered intravenously in cats at 0.3 mg/kg.; assay type: functional; details: route intravenous
Canis familiaris [21] = test: Maximum increase in dP/dt when administered intravenously in dogs at 0.03 mg/kg dose.; assay type: functional, Canis lupus familiaris; details: route intravenous
Canis familiaris [22] = test: Maximum increase in dP/dt60 when administered orally in dogs at dose 1 mg/kg; assay type: functional, Canis lupus familiaris; details: route oral
Canis familiaris [23] = test: Maximum increase in dP/dt when administered intravenously in dogs at 0.1 mg/kg.; assay type: functional, Canis lupus familiaris; details: route intravenous
Felis catus [24] = test: Maximum increase in dP/dt when administered intravenously in cats at 0.03 mg/kg dose.; assay type: functional; details: route intravenous

CN(C)c1ccc(-c2nc3cc4c(cc3[nH]2)C(C)(C)C(=O)N4)cc1
ED1.5 (Rattus norvegicus [1]): >3 mg/kg

CN1C(=O)C(C)(C)c2cc3[nH]c(-c4ccncc4)nc3cc21
ED1.5 (Rattus norvegicus [1]): >3 mg/kg

COc1ccccc1-c1nc2cc3c(cc2[nH]1)C(C)(C)C(=O)N3
ED1.5 (Rattus norvegicus [1]): >3 mg/kg
ED1.5 (Felis catus [2]): >3 mg/kg

Cc1nc2cc3c(cc2[nH]1)C(C)(C)C(=O)N3
ED1.5 (Rattus norvegicus [1]): 0.48 mg/kg
Time (Canis familiaris [3]): 30 min
Max (Felis catus [4]): 2.8 mHg/s
ED1.5 (Felis catus [2]): 0.17 mg/kg
Max (Rattus norvegicus [5]): 3.5
ED1.5 (Canis familiaris [6]): 0.46 mg/kg
Duration (Canis familiaris [7]): 3 h
Max (Canis familiaris [8]): 2.2 mHg s-1

CC1(C)C(=O)Nc2cc3[nH]cnc3cc21
ED1.5 (Rattus norvegicus [1]): 0.19 mg/kg
ED1.5 (Felis catus [2]): 0.13 mg/kg
Max (Rattus norvegicus [9]): 3.2 mHg s-1

CC1(C)C(=O)Nc2cc3[nH]c(-c4ccncc4)nc3cc21 [ADIBENDAN]
ED1.5 (Rattus norvegicus [1]): 0.01 mg/kg
Time (Canis familiaris [3]): 45 min
ED1.5 (Felis catus [2]): 0.01 mg/kg
ED1.5 (Canis familiaris [6]): 0.2 mg/kg
Max (Rattus norvegicus [10]): 3.7 mmHg s-1
Duration (Canis familiaris [7]): > 6 h
Max (Canis familiaris [8]): 2 mHg s-1

Cn1c(O)nc2cc3c(cc21)C(C)(C)C(=O)N3
ED1.5 (Rattus norvegicus [1]): 0.03 mg/kg
Time (Canis familiaris [3]): 30 min
ED1.5 (Felis catus [2]): 0.02 mg/kg
Max (Felis catus [11]): 2.1 mmHg s-1
Max (Rattus norvegicus [10]): 2.4 mmHg s-1
Duration (Canis familiaris [7]): > 5 h

CC1(C)C(=O)Nc2cc3[nH]c(O)nc3cc21
ED1.5 (Rattus norvegicus [1]): 0.13 mg/kg
Time (Canis familiaris [3]): 45 min
ED1.5 (Felis catus [2]): 0.08 mg/kg
Duration (Canis familiaris [12]): 6 h
ED1.5 (Canis familiaris [6]): 0.12 mg/kg
Max (Felis catus [13]): 2.9 mmHg s-1
Max (Canis familiaris [14]): 1.6 mHg s-1
Time (Canis familiaris [15]): 60 min
Duration (Canis familiaris [7]): > 6 h
Max (Rattus norvegicus [16]): 3
Max (Canis familiaris [17]): 2 mHg/s

CC1(C)C(=O)Nc2cc3nc(O)oc3cc21
ED1.5 (Rattus norvegicus [1]): >3 mg/kg

CC1(C)C(=O)Nc2cc3[nH]c(-c4cccs4)nc3cc21
ED1.5 (Rattus norvegicus [1]): 0.12 mg/kg
ED1.5 (Felis catus [2]): 0.07 mg/kg

Cn1c(O)nc2cc3[nH]c(-c4ccncc4)nc3cc21
ED1.5 (Rattus norvegicus [1]): 0.33 mg/kg
ED1.5 (Felis catus [2]): 0.01 mg/kg
Max (Canis familiaris [18]): 2.9 mmHg s-1
Max (Rattus norvegicus [5]): 2.6
ED1.5 (Canis familiaris [6]): 0.12 mg/kg
Duration (Canis familiaris [7]): 0 h

CC1(C)C(=O)Nc2cc3[nH]c(-c4ccnnc4)cc3cc21
ED1.5 (Felis catus [2]): 0.01 mg/kg

CC1(C)C(=O)Nc2cc3[nH]c(O)cc3cc21
ED1.5 (Rattus norvegicus [1]): 0.11 mg/kg
Max (Rattus norvegicus [19]): 2 mmHg s-1

CC1(C)C(=O)Nc2cc3[nH]c(C4CCCCC4)nc3cc21
ED1.5 (Rattus norvegicus [1]): >3 mg/kg

CCCc1nc2cc3c(cc2[nH]1)C(C)(C)C(=O)N3
ED1.5 (Rattus norvegicus [1]): 0.17 mg/kg
ED1.5 (Felis catus [2]): 0.12 mg/kg
Max (Felis catus [20]): 2 mmHg s-1
Max (Rattus norvegicus [16]): 2.5

COc1ccc(-c2nc3cc4c(cc3[nH]2)C(C)(C)C(=O)N4)cc1
ED1.5 (Rattus norvegicus [1]): >3 mg/kg

CC1(C)C(=O)Nc2cc3[nH]c(-c4cnc5ccccc5c4)nc3cc21
ED1.5 (Rattus norvegicus [1]): >3 mg/kg

CC1(C)C(=O)Nc2cc3[nH]c(-c4ccc(-n5ccnc5)cc4)nc3cc21
ED1.5 (Rattus norvegicus [1]): 1 mg/kg
ED1.5 (Felis catus [2]): 0.25 mg/kg
Max (Rattus norvegicus [5]): 2.8

CC1(C)C(=O)Nc2cc3[nH]c(-c4cnsn4)nc3cc21
Max (Canis familiaris [21]): 2.3 mmHg s-1
ED1.5 (Rattus norvegicus [1]): 0.007 mg/kg
Time (Canis familiaris [3]): 10 min
ED1.5 (Felis catus [2]): 0.004 mg/kg
Max (Canis familiaris [22]): 3 mmHg s-1
Max (Felis catus [11]): 2.6 mmHg s-1
ED1.5 (Canis familiaris [6]): 0.008 mg/kg
Duration (Canis familiaris [7]): 3 h
Max (Rattus norvegicus [16]): 3.5

C/C=C/c1nc2cc3c(cc2[nH]1)C(C)(C)C(=O)N3
ED1.5 (Rattus norvegicus [1]): >3 mg/kg

CC1(C)C(=O)Nc2cc3[nH]c(-c4ccc(O)cc4)nc3cc21
ED1.5 (Rattus norvegicus [1]): >3 mg/kg

CC1(C)C(=O)Nc2cc3[nH]c(-c4ccncc4)cc3cc21
ED1.5 (Rattus norvegicus [1]): 0.16 mg/kg
ED1.5 (Felis catus [2]): 0.11 mg/kg
Max (Rattus norvegicus [9]): 3.4 mHg s-1

C=C(C)c1nc2cc3c(cc2[nH]1)C(C)(C)C(=O)N3
ED1.5 (Rattus norvegicus [1]): >3 mg/kg

CC1(C)C(=O)Nc2cc3[nH]c(-c4ccc(-n5ccnc5)cc4)cc3cc21
ED1.5 (Rattus norvegicus [1]): >3 mg/kg

CC1(C)C(=O)Nc2cc3[nH]c(-c4ccnnc4)nc3cc21
ED1.5 (Rattus norvegicus [1]): 0.04 mg/kg
Time (Canis familiaris [3]): 150 min
ED1.5 (Felis catus [2]): 0.01 mg/kg
Max (Canis familiaris [22]): 2.3 mmHg s-1
ED1.5 (Canis familiaris [6]): 0.035 mg/kg
Max (Canis familiaris [23]): 2.6 mmHg s-1
Duration (Canis familiaris [7]): 5 h
Max (Felis catus [24]): 2.4 mmHg s-1

CC1(C)C(=O)Nc2cc3[nH]c(-c4ccc[nH]4)nc3cc21
ED1.5 (Rattus norvegicus [1]): 0.45 mg/kg
ED1.5 (Felis catus [2]): 0.07 mg/kg
Max (Rattus norvegicus [5]): 2.6
ED1.5 (Canis familiaris [6]): 0.32 mg/kg
Max (Felis catus [13]): 2.3 mmHg s-1
Max (Canis familiaris [8]): 1.9 mHg s-1

Cc1nc2cc3nc(O)oc3cc2[nH]1
ED1.5 (Rattus norvegicus [1]): >3 mg/kg

CC1(C)C(=O)Nc2cc3[nH]c(-c4cc5ccccc5[nH]4)nc3cc21
ED1.5 (Rattus norvegicus [1]): >3 mg/kg
